Source: patent US7361679B2, “2-phenyl-3-heteroarylpropionic acid derivative or salt thereof and medicine containing the same” (Kaken Pharmaceutical Co., Ltd., priority 2001, dated 2008)

Columns and labels:
[1] = biological target: T1, VLA-4/VCAM-1 (Homo sapiens, UniProt P05556+P13612); test: VLA-4/VCAM-1 adhesion inhibition test (BCECF-labelled HL-60 cells adhering to VCAM-1 expressing CHO cells); type: cell-based; conditions: adhesion of VLA-4 expressing HL-60 cells to CHO cells transfected with human VCAM-1 gene; read-out: 50% inhibition concentration
T1 construct: endogenous in cells; host or cells: HL-60 cells (VLA-4, endogenous); CHO cells transfected with a human VCAM-1 gene (the ligand VCAM-1)
Description: Test Example 1 VLA-4/VCAM-1 Adhesion Inhibition Test
The above VCAM-1 expressing CHO cells were placed in a 96-well culture plate in amount of 7×10^3 cells per well and cultured in Ham's F-12 medium containing 10 wt % fetal calf serum (FCS) for 3 days until a confluent state was satisfied. The HL-60 cells were re-floated in Hanks' solution containing 0.4 wt % bovine serum albumin (BSA), and 5 μM of 2′,7′-bis(carboxyethyl)-5(6)-carboxyfluorescein penta acetoxy methyl ester (BCECF-AM) was added to label the cells. Solutions having various concentrations of each test substance and having an amount of 20 μl each were added to 180 μl each of suspensions of BCECF-labeled HL-60 cells re-floated at a rate of 4×10^6 cells/ml in the FCS-non-containing RPMI 1640 culture medium, and pre-treated at 37° C. for 15 minutes.
Then, the pre-treated HL-60 cells were stratified in the 96-well plate culturing the VCAM-1 expressing CHO cells at a rate of 2×10^5 cells per well, and allowed to adhere thereto at 37° C. for 5 minutes. Then, the plate was filled with 0.4 wt % BSA Hanks, covered with a plate sealer and turned upside down. Further, the cells were cultured for 45 minutes. After washing, 1 wt % NP-40-containing PBS was added to destroy the cells, and the thus-obtained supernatants were measured for fluorescence intensity with a cyto Fluor 2300 fluorescence measurement system (supplied by Millipore).
Further, as a blank, 1 wt % NP-40-containing PBS was measured for fluorescence intensity. Further, as standards, a fluorescence-labeled HL-60 floating liquid was added to 1 wt % NP-40-containing PBS at a rate of 2×10^5, 10^5, 2×10^4 and 10^4 cells/ml, the cells were destroyed, and the thus-obtained supernatants were measured for fluorescence intensity.
Each test substance was measured as described above, and on the basis of the calibration curve prepared from the measurements of the standard, cells in a control and cells adhering to the VCAM-1 expressive CHO cells due to the addition of the test substances were measured for numbers, and cell adhesion inhibition ratios (%) were calculated on the basis of the following equation.
Cell adhesion inhibition ratio (%)=100×[1−(number of adhered cells of groups to which the test substance was added/number of adhered cells of control groups)

[2] = biological target: T2, LPAM-1/VCAM-1 (Homo sapiens, UniProt P13612+P26010); test: LPAM-1/VCAM-1 adhesion inhibition test; type: cell-based
T2 sequence (P13612 34-1032): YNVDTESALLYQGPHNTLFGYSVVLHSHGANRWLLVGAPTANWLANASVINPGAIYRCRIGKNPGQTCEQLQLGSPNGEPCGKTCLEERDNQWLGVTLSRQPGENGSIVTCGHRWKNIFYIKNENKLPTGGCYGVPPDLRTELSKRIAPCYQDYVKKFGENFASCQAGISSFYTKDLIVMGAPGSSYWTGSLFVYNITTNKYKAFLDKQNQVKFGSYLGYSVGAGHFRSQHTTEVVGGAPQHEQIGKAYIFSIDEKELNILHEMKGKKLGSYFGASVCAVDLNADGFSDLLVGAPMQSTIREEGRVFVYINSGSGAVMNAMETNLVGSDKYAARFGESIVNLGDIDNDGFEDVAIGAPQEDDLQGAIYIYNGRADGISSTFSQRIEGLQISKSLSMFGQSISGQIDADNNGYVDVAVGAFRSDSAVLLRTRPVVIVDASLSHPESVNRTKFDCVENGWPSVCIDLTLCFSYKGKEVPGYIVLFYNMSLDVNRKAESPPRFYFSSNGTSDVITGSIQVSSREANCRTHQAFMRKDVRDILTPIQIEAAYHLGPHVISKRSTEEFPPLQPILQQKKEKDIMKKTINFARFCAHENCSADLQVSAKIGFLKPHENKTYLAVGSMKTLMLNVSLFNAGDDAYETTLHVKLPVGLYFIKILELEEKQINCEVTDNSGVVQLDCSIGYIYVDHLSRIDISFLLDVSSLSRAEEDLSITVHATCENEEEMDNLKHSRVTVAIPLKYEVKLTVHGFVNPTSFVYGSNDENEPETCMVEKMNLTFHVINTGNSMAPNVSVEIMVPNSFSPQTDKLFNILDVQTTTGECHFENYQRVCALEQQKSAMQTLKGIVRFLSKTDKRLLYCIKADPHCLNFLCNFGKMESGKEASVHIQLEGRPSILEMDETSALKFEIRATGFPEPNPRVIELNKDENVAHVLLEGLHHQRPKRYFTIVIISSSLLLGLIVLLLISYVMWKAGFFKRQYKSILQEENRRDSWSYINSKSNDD
T2 sequence (P26010 20-798): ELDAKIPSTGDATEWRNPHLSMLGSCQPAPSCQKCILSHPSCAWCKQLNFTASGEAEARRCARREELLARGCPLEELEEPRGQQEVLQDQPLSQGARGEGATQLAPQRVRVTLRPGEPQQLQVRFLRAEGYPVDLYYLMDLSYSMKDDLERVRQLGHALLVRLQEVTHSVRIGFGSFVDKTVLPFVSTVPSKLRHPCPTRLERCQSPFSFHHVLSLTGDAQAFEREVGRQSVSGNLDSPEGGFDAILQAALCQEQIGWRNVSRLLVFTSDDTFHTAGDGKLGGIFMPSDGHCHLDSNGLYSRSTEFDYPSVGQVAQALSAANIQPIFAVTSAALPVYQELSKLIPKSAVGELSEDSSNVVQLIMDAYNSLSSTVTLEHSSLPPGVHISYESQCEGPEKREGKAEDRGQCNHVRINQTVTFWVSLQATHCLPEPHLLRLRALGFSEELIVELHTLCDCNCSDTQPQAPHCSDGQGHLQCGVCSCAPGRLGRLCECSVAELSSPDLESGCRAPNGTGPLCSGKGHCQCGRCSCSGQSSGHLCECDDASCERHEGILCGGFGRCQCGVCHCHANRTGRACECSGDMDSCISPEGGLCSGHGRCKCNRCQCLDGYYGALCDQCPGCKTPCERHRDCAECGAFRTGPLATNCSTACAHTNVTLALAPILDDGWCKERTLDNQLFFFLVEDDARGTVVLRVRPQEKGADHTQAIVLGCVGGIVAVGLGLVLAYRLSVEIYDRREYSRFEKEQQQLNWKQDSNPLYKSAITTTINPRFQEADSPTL

T1 sequence (P05556 21-798, one chain of several): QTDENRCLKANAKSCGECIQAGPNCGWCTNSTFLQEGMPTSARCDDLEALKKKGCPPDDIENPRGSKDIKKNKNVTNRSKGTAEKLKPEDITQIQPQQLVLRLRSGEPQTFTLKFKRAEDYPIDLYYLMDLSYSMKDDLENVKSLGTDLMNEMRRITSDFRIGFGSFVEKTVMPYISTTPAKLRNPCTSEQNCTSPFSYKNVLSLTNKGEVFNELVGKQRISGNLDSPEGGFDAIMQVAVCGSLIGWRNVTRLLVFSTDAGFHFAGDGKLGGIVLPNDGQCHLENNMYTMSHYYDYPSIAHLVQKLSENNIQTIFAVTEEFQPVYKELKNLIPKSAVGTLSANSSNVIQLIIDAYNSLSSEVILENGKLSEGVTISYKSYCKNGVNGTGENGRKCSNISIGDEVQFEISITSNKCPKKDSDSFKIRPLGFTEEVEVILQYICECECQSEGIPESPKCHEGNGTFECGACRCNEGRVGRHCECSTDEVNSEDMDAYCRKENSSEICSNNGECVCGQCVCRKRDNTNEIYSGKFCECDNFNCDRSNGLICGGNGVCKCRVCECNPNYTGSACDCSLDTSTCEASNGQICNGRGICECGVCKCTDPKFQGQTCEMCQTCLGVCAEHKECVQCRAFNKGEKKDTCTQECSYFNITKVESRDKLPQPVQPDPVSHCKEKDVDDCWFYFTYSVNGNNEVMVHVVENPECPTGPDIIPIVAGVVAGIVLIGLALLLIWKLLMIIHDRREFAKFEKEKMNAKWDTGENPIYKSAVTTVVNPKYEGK

Row | Structure (SMILES) | IC50 [1] [nM] | adhesion inhibition activity [2]
1 | COc1ccc(C(Cc2ccc(NC(=O)c3c(Cl)cccc3Cl)nc2)C(=O)O)cc1N(CC(C)C)C(=O)C(C)C (centres unmarked) [Example 2] | 12 | –
2 | CCOc1ccc(C(Cc2ccc(NC(=O)c3c(Cl)cccc3Cl)nc2)C(=O)O)cc1N(CC(C)C)C(=O)C(C)C (centres unmarked) [Example 5] | 48 | –
3 | CCOc1ccc(C(Cc2ccc(NC(=O)c3c(Cl)cncc3Cl)nc2)C(=O)O)cc1N(CC(C)C)C(=O)C(C)(C)C (centres unmarked) [Example 10] | 1.2 | adhesion inhibition activity was found
4 | CCOc1ccc(C(Cc2ccc(NC(=O)c3c(Cl)cccc3Cl)nc2)C(=O)O)cc1N(CC(C)C)C(=O)C(C)(C)C (centres unmarked) [Example 6] | 13 | –
5 | CCOc1ccc(C(Cc2ccc(NC(=O)c3c(Cl)cccc3Cl)nc2)C(=O)O)cc1N(CC(C)C)C(=O)C(CC)CC (centres unmarked) [Example 7] | 7.3 | –
6 | COc1ccc(C(Cc2ccc(NC(=O)c3c(Cl)cccc3Cl)nc2)C(=O)O)cc1N(CC(C)C)C(=O)C(C)(C)C (centres unmarked) [Example 1, 3-[2-(2,6-dichlorobenzoylamino)pyrid-5-yl]-2-{3-[(2,2-dimethylpropionyl)isobutylamino]-4-methoxyphenyl}propionic acid] | 3 | adhesion inhibition activity was found
7 | CCC(CC)C(=O)N(CC(C)C)c1cc(C(Cc2ccc(NC(=O)c3c(Cl)cccc3Cl)nc2)C(=O)O)ccc1OC (centres unmarked) [Example 3] | 33 | –
8 | COc1ccc(C(Cc2ccc(NC(=O)c3c(Cl)cncc3Cl)nc2)C(=O)O)cc1N(CC(C)C)C(=O)C(C)(C)C (centres unmarked) [Example 9] | 2.8 | adhesion inhibition activity was found
